Data reported in patent publication US11795460B2, “Compositions and methods for TTR gene editing and treating ATTR amyloidosis” (Intellia Therapeutics, Inc., priority 2017, dated 2023).

Key:
TTR [1] = assay: TTR editing in primary human hepatocytes transfected with Spy Cas9 mRNA and dgRNAs (Table 9); format: cell-based; details: dgRNA co-transfected with Spy Cas9 mRNA (SEQ ID NO:2)
How it was run: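 PHH sequentially lipofected with Spy Cas9 mRNA (100 ng), then crRNA plus tracrRNA (25 nM each) dual-guide lipoplex. Cells harvested 24, 48 or 72 h post-transfection; TTR target amplicons sequenced on Illumina MiSeq, editing given as percent reads with indels or substitutions over total reads.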

TTR [2] = assay: TTR editing in HEK293_Cas9 cells transfected with dgRNAs (Table 4); format: cell-based, human; details: HEK293_Cas9 cells (constitutively express Spy Cas9) transfected with dgRNAs
How it was run: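 Spy Cas9-expressing HEK293 cells were transfected by lipofection with crRNA (25 nM) plus trRNA (25 nM) and harvested at 24, 48 or 72 h. The target site was PCR-amplified and sequenced on MiSeq. Percent editing is reads with indels or substitutions over total reads.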

TTR [3] = assay: TTR editing in primary human hepatocytes transfected with Spy Cas9 protein (RNP) loaded with dgRNAs (Table 8); format: cell-based; details: dgRNA transfected with Spy Cas9 protein (RNP)
How it was run: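 Primary human hepatocytes were lipofected (RNAiMAX) with RNP of Spy Cas9 (10 nM) plus pre-annealed crRNA (10 nM) and trRNA (10 nM) and harvested 24, 48 or 72 h later. Target-site amplicons were sequenced on Illumina MiSeq and aligned to hg38; percent editing = reads with indels or substitutions over total reads.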

TTR [4] = assay: TTR editing in primary human hepatocytes electroporated with Spy Cas9 protein loaded with dgRNAs (Table 7); format: cell-based; details: dgRNA electroporated with Spy Cas9 protein (RNP)
How it was run: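 Primary human or cynomolgus hepatocytes electroporated (Lonza P3 buffer, program EX-147) with Spy Cas9 RNP carrying pre-annealed crRNA/trRNA dual guides. Genomic DNA harvested at 24, 48 or 72 h; target amplicons sequenced by Illumina MiSeq. Percent editing = reads with indels or substitutions over total reads.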

Sequence | Avg % Deletion (TTR [1]) [%] | Avg % Edit (TTR [1]) [%] | Avg % Insert (TTR [1]) [%] | Avg % Deletion (TTR [2]) [%] | Avg % Edit (TTR [2]) [%] | Avg % Insert (TTR [2]) [%] | Avg % Deletion (TTR [3]) [%] | Avg % Edit (TTR [3]) [%] | Avg % Insert (TTR [3]) [%] | Avg % Deletion (TTR [4]) [%] | Avg % Edit (TTR [4]) [%] | Avg % Insert (TTR [4]) [%]
GGAGUAGGGGCUCAGCAGGG (tested as dual guide RNA, chemistry not given here) [CR003382] | 0.00 | 0.97 | 0.97 | 25.49 | 29.95 | 4.46 | 0.15 | 2.44 | 2.28 | 0.43 | 8.40 | 8.10
ACACAAAUACCAGUCCAGCA (tested as dual guide RNA, chemistry not given here) [CR003339] | 34.23 | 36.43 | 2.27 | 6.98 | 56.37 | 49.39 | 36.21 | 45.06 | 8.85 | 34.07 | 43.00 | 8.93
ACUGAGGAGGAAUUUGUAGA (tested as dual guide RNA, chemistry not given here) [CR003363] | 4.93 | 16.70 | 11.80 | 16.26 | 31.03 | 14.77 | 6.18 | 27.65 | 21.47 | 1.63 | 9.43 | 7.80
GCGGCAAUGGUGUAGCGGCG (tested as dual guide RNA, chemistry not given here) [CR003377] | 0.57 | 17.53 | 16.97 | 21.99 | 24.70 | 2.71 | 0.31 | 12.77 | 12.45 | 0.10 | 10.23 | 10.13
CUGAGGAGGAAUUUGUAGAA (tested as dual guide RNA, chemistry not given here) [CR003364] | 8.93 | 15.63 | 6.73 | 16.48 | 35.65 | 19.17 | 11.36 | 35.29 | 23.93 | 6.53 | 23.30 | 16.93
UUCUUUGGCAACUUACCCAG (tested as dual guide RNA, chemistry not given here) [CR003357] | 0.63 | 25.93 | 25.30 | 37.85 | 43.23 | 5.38 | 0.90 | 49.35 | 48.45 | 0.77 | 36.23 | 35.47
UCUAGAACUUUGACCAUCAG (tested as dual guide RNA, chemistry not given here) [CR003345] | 18.45 | 50.65 | 32.30 | 16.01 | 35.02 | 19.00 | 7.91 | 28.90 | 21.00 | 13.57 | 48.07 | 34.53
CCAGUCCAGCAAGGCAGAGG (tested as dual guide RNA, chemistry not given here) [CR003337] | 1.23 | 19.30 | 18.10 | 37.48 | 42.72 | 5.24 | 1.88 | 49.43 | 47.54 | 1.30 | 54.27 | 53.23
UACUCACCUCUGCAUGCUCA (tested as dual guide RNA, chemistry not given here) [CR003372] | 0.63 | 1.77 | 1.13 | 11.99 | 15.24 | 3.25 | 1.81 | 17.56 | 15.74 | 1.77 | 12.17 | 10.47
GCAGGGCGGCAAUGGUGUAG (tested as dual guide RNA, chemistry not given here) [CR003380] | 0.47 | 2.93 | 2.47 | 44.00 | 47.64 | 3.64 | 0.46 | 8.17 | 7.71 | 0.10 | 5.37 | 5.27
GACGACAGCCGUGGUGGAAU (tested as dual guide RNA, chemistry not given here) [CR003388] | 1.17 | 12.97 | 11.87 | 17.82 | 19.23 | 1.41 | 1.05 | 5.43 | 4.38 | 0.27 | 5.70 | 5.47
CAUUGAUGGCAGGACUGCCU (tested as dual guide RNA, chemistry not given here) [CR003347] | 0.17 | 41.47 | 41.33 | 20.50 | 21.45 | 0.95 | 0.24 | 66.35 | 66.11 | 0.43 | 82.30 | 81.97
CCUCUGCAUGCUCAUGGAAU (tested as dual guide RNA, chemistry not given here) [CR003370] | 0.50 | 2.83 | 2.33 | 29.73 | 34.22 | 4.49 | 1.26 | 20.06 | 18.80 | 0.90 | 15.27 | 14.43
AGGCAGUCCUGCCAUCAAUG (tested as dual guide RNA, chemistry not given here) [CR003348] | 15.80 | 18.00 | 2.30 | 13.21 | 35.53 | 22.32 | 9.44 | 23.18 | 13.74 | 17.27 | 28.53 | 11.30
AGACACCAAAUCUUACUGGA (tested as dual guide RNA, chemistry not given here) [CR003367] | 23.37 | 37.33 | 14.03 | 18.67 | 47.11 | 28.44 | 15.13 | 31.19 | 16.06 | 16.37 | 39.20 | 22.93
CCCCUACUCCUAUUCCACCA (tested as dual guide RNA, chemistry not given here) [CR003385] | 3.60 | 36.77 | 33.23 | 18.82 | 26.19 | 7.36 | 3.00 | 41.15 | 38.15 | 2.53 | 40.87 | 38.43
AAUAGGAGUAGGGGCUCAGC (tested as dual guide RNA, chemistry not given here) [CR003384] | 0.20 | 1.70 | 1.50 | 16.00 | 17.45 | 1.45 | 0.17 | 3.56 | 3.39 | 0.23 | 1.87 | 1.73
